Our source for the IC50 values is patent US10544134B2, “4-substituted coumarin derivatives and preparation methods and uses thereof” (SI CHUAN UNIVERSITY, priority 2015, dated 2020).

pIC50: −log10 of the molar value. Some results are limits rather than exact numbers.

One test has as its system prostate cancer PC-3. Kind of test: Tumor cell proliferation inhibitory activity test in vitro (MTT). It counts as cell-based, human. The following applies: 72 hours, read-out: IC50 of compounds for tumor cells, Activity, PC-3. The source says: (§1) Human non-small cell lung cancer cell line NCI-H460, human small cell lung cancer cell line NCI-H446, human hepatocellular carcinoma cell strain HepG2, human colon carcinoma cell strain HCT116, human prostate cancer PC-3, human melanoma A375, colon carcinoma cell HCT-8, breast cancer cell MCF-7, ovarian cancer cell A2780s, drug-resistant ovarian cancer cell A2780/T, drug-resistant colon cancer cell HCT-8/T and doxorubicin-resistant breast cancer cell MCF-7/ADR are obtained from American Type Culture Collection (ATCC) and are cultured and preserved by the cell bank of State Key Laboratory of Biotherapy of Sichuan University. Above tumor cells are routinely cultured in DMEM culture medium containing 10% fetal bovine serum, 100 U·mL-1 penicillin and 100 mg·L−1 streptomycin, and in an incubator at 37° C. and with saturated humidity and 5% CO2 concentration.
(§2) Fill diluted cell suspension in the 96-well plate with 1000-10000 cells per well and incubate it in CO2 incubator overnight.
(§3) Replace with new medium containing various concentrations of compounds to be tested for the test group and replace with fresh medium with equal volume for the control group, each group is arranged with 5 parallel wells and incubated in an incubator at 37° C. and with 5% CO2 concentration.
(§4) Discard the supernatant after 72 hours, add 200 μL freshly prepared serum-free medium containing 0.2 mg/mL MTT into each well, continue to incubate at 37° C. for 1-4 hours, then stop incubation, carefully remove the culture supernatant in the wells and add 200 uL DMSO (dimethyl sulfoxide), oscillate with a miniature ultrasonic oscillator for 15-20 minutes to make the crystal fully dissolved and mixed. Determine OD values using a microplate reader at 570 nm with a reference wavelength of 450 nm.
(§5) Draw curves based on the growth inhibition rate for tumor cells of the same sample with different concentrations to get dose-response curve, so as to calculate IC50. Repeat each test for 3 times, measure IC50 (μM) or nanomolor concentration (nM) of compounds in different tumor cells.
The term pIC50 denotes −log10 of the IC50, conventionally taken in molar units. With “4-(N-methyl-N-(4-methoxy-3-(2-methylphenyl-methoxycarbonyl)-benzene)-amino) Coumarin [COUM-63]”, the negative-log IC50 (pIC50) was 5.30 to 7.00.

On to `COc1ccc(N(C)c2cc(=O)oc3ccccc23)cc1OCCN1CCSCC1` [COUM-50, 4-(N-methyl-N-(4-methoxy-3-(2-thiomorpholinoethoxy)-benzene)-amino) Coumarin], for which the pIC50 was 7.00 to 8.00.

Consider “4-(N-methyl-N-(4-methoxy-3-((4-ethylbenzene) methoxycarbonyl)-benzene)-amino) Coumarin [COUM-53]”, for which the negative-log IC50 (pIC50) was 5.30 to 7.00.

On to “4-(N-methyl-N-(4-methoxy-3-(2-pyrrole ethoxy)-benzene)-amino) Coumarin [COUM-52]”, for which the pIC50 was 5.30 to 7.00.

Still in this test, the particulars now being: Homo sapiens, 72 hours, read-out: IC50 of compounds for tumor cells, Activity, PC-3.
Consider `CS(=O)(=O)c1ccc(-c2ccc(-c3cc(=O)oc4ccccc34)o2)cc1` [COUM-16, 4-(5-(4-methylsulfonylphenyl)furan-2-yl)-coumarin], for which the pIC50 is less than 5.30.

As to `O=c1cc(-c2ccc(-c3cccc(Cl)c3)o2)c2ccccc2o1` [COUM-22, 4-(5-(3-chlorobenzene)furan-2-yl)-coumarin], the pIC50 was less than 5.30.

For `COc1ccc2c(N(C)c3cc(OC)c(OC)c(OC)c3)cc(=O)oc2c1` [COUM-44], the negative logarithm of the IC50 (pIC50) was 7.00 to 8.00.

Take `Cc1ccc(-c2ccc(-c3cc(=O)oc4ccccc34)o2)cc1` [COUM-17, 4-(5-(4-methylphenyl)furan-2-yl)-coumarin]: the negative logarithm of the IC50 (pIC50) is less than 5.30.

On to `O=c1cc(-c2ccc(-c3cccc(Cl)c3)s2)c2ccccc2o1` [COUM-8, 4-(5-(3-chlorobenzene)thiophene-2-yl)-coumarin], for which the negative logarithm of the IC50 (pIC50) was less than 5.30.

The subject of another test is melanoma A375. The test is described as above. It counts as cell-based, human. The following applies: 72 hours, read-out: IC50 of compounds for tumor cells, Activity, A375.
Source text: as §1, §2, §3, §4, §5
Regarding “4-(N-methyl-N-(4-methoxy-3-(2-methylphenyl-methoxycarbonyl)-benzene)-amino) Coumarin [COUM-63]”, the negative logarithm of the IC50 (pIC50) is 5.30 to 7.00.

Take `COc1ccc(N(C)c2cc(=O)oc3ccccc23)cc1OCCN1CCSCC1` [COUM-50, 4-(N-methyl-N-(4-methoxy-3-(2-thiomorpholinoethoxy)-benzene)-amino) Coumarin]: the pIC50 was 7.00 to 8.00.

For “4-(N-methyl-N-(4-methoxy-3-((4-ethylbenzene) methoxycarbonyl)-benzene)-amino) Coumarin [COUM-53]”, the negative logarithm of the IC50 (pIC50) is 5.30 to 7.00.

With “4-(N-methyl-N-(4-methoxy-3-(2-pyrrole ethoxy)-benzene)-amino) Coumarin [COUM-52]”, the pIC50 is 5.30 to 7.00.

The same test, now with this note: Homo sapiens, A-375, 72 hours, read-out: IC50 of compounds for tumor cells, Activity, A375.
With `CS(=O)(=O)c1ccc(-c2ccc(-c3cc(=O)oc4ccccc34)o2)cc1` [COUM-16, 4-(5-(4-methylsulfonylphenyl)furan-2-yl)-coumarin], the pIC50 was less than 5.30.

As to `O=c1cc(-c2ccc(-c3cccc(Cl)c3)o2)c2ccccc2o1` [COUM-22, 4-(5-(3-chlorobenzene)furan-2-yl)-coumarin], the pIC50 is less than 5.30.

Turning to `COc1ccc2c(N(C)c3cc(OC)c(OC)c(OC)c3)cc(=O)oc2c1` [COUM-44], the negative logarithm of the IC50 (pIC50) is 7.00 to 8.00.

Consider `Cc1ccc(-c2ccc(-c3cc(=O)oc4ccccc34)o2)cc1` [COUM-17, 4-(5-(4-methylphenyl)furan-2-yl)-coumarin], for which the pIC50 is less than 5.30.

In the case of `O=c1cc(-c2ccc(-c3cccc(Cl)c3)s2)c2ccccc2o1` [COUM-8, 4-(5-(3-chlorobenzene)thiophene-2-yl)-coumarin], the negative logarithm of the IC50 (pIC50) is less than 5.30.

The test system of a further test is hepatocellular carcinoma cell HEPG2. The test is described as above. It counts as cell-based, human. The following applies: 72 hours, read-out: IC50 of compounds for tumor cells, Activity, HEPG2.
Source text: as §1, §2, §3, §4, §5
As to “4-(N-methyl-N-(4-methoxy-3-(2-methylphenyl-methoxycarbonyl)-benzene)-amino) Coumarin [COUM-63]”, the negative-log IC50 (pIC50) was 5.30 to 7.00.

With `COc1ccc(N(C)c2cc(=O)oc3ccccc23)cc1OCCN1CCSCC1` [COUM-50, 4-(N-methyl-N-(4-methoxy-3-(2-thiomorpholinoethoxy)-benzene)-amino) Coumarin], the pIC50 is 7.00 to 8.00.

Consider “4-(N-methyl-N-(4-methoxy-3-((4-ethylbenzene) methoxycarbonyl)-benzene)-amino) Coumarin [COUM-53]”, for which the negative-log IC50 (pIC50) is 5.30 to 7.00.

As to “4-(N-methyl-N-(4-methoxy-3-(2-pyrrole ethoxy)-benzene)-amino) Coumarin [COUM-52]”, the pIC50 was 5.30 to 7.00.

The same test, now with this note: Homo sapiens, HepG2, 72 hours, read-out: IC50 of compounds for tumor cells, Activity, HEPG2.
For the molecule `CS(=O)(=O)c1ccc(-c2ccc(-c3cc(=O)oc4ccccc34)o2)cc1` [COUM-16, 4-(5-(4-methylsulfonylphenyl)furan-2-yl)-coumarin], the pIC50 was less than 5.30.

Take `O=c1cc(-c2ccc(-c3cccc(Cl)c3)o2)c2ccccc2o1` [COUM-22, 4-(5-(3-chlorobenzene)furan-2-yl)-coumarin]: the negative-log IC50 (pIC50) is less than 5.30.

For the molecule `COc1ccc2c(N(C)c3cc(OC)c(OC)c(OC)c3)cc(=O)oc2c1` [COUM-44], the pIC50 was 7.00 to 8.00.

For `Cc1ccc(-c2ccc(-c3cc(=O)oc4ccccc34)o2)cc1` [COUM-17, 4-(5-(4-methylphenyl)furan-2-yl)-coumarin], the negative logarithm of the IC50 (pIC50) was less than 5.30.

`O=c1cc(-c2ccc(-c3cccc(Cl)c3)s2)c2ccccc2o1` [COUM-8, 4-(5-(3-chlorobenzene)thiophene-2-yl)-coumarin]: the pIC50 was less than 5.30.

Another test relates to non-small cell lung cancer cell line NCI-H460. The description is as above. It counts as cell-based, human. The following applies: 72 hours, read-out: IC50 of compounds for tumor cells, Activity, H460.
Source text: as §1, §2, §3, §4, §5
Turning to “4-(N-methyl-N-(4-methoxy-3-(2-methylphenyl-methoxycarbonyl)-benzene)-amino) Coumarin [COUM-63]”, the pIC50 was 5.30 to 7.00.

On to `COc1ccc(N(C)c2cc(=O)oc3ccccc23)cc1OCCN1CCSCC1` [COUM-50, 4-(N-methyl-N-(4-methoxy-3-(2-thiomorpholinoethoxy)-benzene)-amino) Coumarin], for which the pIC50 was 7.00 to 8.00.

As for “4-(N-methyl-N-(4-methoxy-3-((4-ethylbenzene) methoxycarbonyl)-benzene)-amino) Coumarin [COUM-53]”, the negative logarithm of the IC50 (pIC50) was 5.30 to 7.00.

With “4-(N-methyl-N-(4-methoxy-3-(2-pyrrole ethoxy)-benzene)-amino) Coumarin [COUM-52]”, the pIC50 is 5.30 to 7.00.

Still in this test, the particulars now being: Homo sapiens, NCI-H460, 72 hours, read-out: IC50 of compounds for tumor cells, Activity, H460.
Consider `CS(=O)(=O)c1ccc(-c2ccc(-c3cc(=O)oc4ccccc34)o2)cc1` [COUM-16, 4-(5-(4-methylsulfonylphenyl)furan-2-yl)-coumarin], for which the pIC50 is less than 5.30.

`O=c1cc(-c2ccc(-c3cccc(Cl)c3)o2)c2ccccc2o1` [COUM-22, 4-(5-(3-chlorobenzene)furan-2-yl)-coumarin]: the pIC50 is less than 5.30.

As to `COc1ccc2c(N(C)c3cc(OC)c(OC)c(OC)c3)cc(=O)oc2c1` [COUM-44], the pIC50 is 7.00 to 8.00.

As to `Cc1ccc(-c2ccc(-c3cc(=O)oc4ccccc34)o2)cc1` [COUM-17, 4-(5-(4-methylphenyl)furan-2-yl)-coumarin], the negative logarithm of the IC50 (pIC50) is less than 5.30.

`O=c1cc(-c2ccc(-c3cccc(Cl)c3)s2)c2ccccc2o1` [COUM-8, 4-(5-(3-chlorobenzene)thiophene-2-yl)-coumarin]: the pIC50 was less than 5.30.

A further test concerns colon carcinoma cell HCT116. The test is described as above. The test is classed as cell-based, human. The following applies: 72 hours, read-out: IC50 of compounds for tumor cells, Activity, HCT116.
Source text: as §1, §2, §3, §4, §5
For “4-(N-methyl-N-(4-methoxy-3-(2-methylphenyl-methoxycarbonyl)-benzene)-amino) Coumarin [COUM-63]”, the pIC50 is 5.30 to 7.00.

`COc1ccc(N(C)c2cc(=O)oc3ccccc23)cc1OCCN1CCSCC1` [COUM-50, 4-(N-methyl-N-(4-methoxy-3-(2-thiomorpholinoethoxy)-benzene)-amino) Coumarin]: the negative logarithm of the IC50 (pIC50) was 7.00 to 8.00.

Consider “4-(N-methyl-N-(4-methoxy-3-((4-ethylbenzene) methoxycarbonyl)-benzene)-amino) Coumarin [COUM-53]”, for which the pIC50 was 5.30 to 7.00.

With “4-(N-methyl-N-(4-methoxy-3-(2-pyrrole ethoxy)-benzene)-amino) Coumarin [COUM-52]”, the negative-log IC50 (pIC50) is 5.30 to 7.00.

The same test, now with this note: Homo sapiens, HCT-116, 72 hours, read-out: IC50 of compounds for tumor cells, Activity, HCT116.
Take `CS(=O)(=O)c1ccc(-c2ccc(-c3cc(=O)oc4ccccc34)o2)cc1` [COUM-16, 4-(5-(4-methylsulfonylphenyl)furan-2-yl)-coumarin]: the pIC50 is less than 5.30.

`O=c1cc(-c2ccc(-c3cccc(Cl)c3)o2)c2ccccc2o1` [COUM-22, 4-(5-(3-chlorobenzene)furan-2-yl)-coumarin]: the negative logarithm of the IC50 (pIC50) is less than 5.30.

On to `COc1ccc2c(N(C)c3cc(OC)c(OC)c(OC)c3)cc(=O)oc2c1` [COUM-44], for which the negative logarithm of the IC50 (pIC50) is 7.00 to 8.00.

Take `Cc1ccc(-c2ccc(-c3cc(=O)oc4ccccc34)o2)cc1` [COUM-17, 4-(5-(4-methylphenyl)furan-2-yl)-coumarin]: the pIC50 is less than 5.30.

Take `O=c1cc(-c2ccc(-c3cccc(Cl)c3)s2)c2ccccc2o1` [COUM-8, 4-(5-(3-chlorobenzene)thiophene-2-yl)-coumarin]: the pIC50 is less than 5.30.

The next test concerns breast cancer cell MCF-7. Described as above. The test is classed as cell-based. The following applies: 72 hours, read-out: IC50 of compounds for tumor cells, Activity, MCF-7.
Source text: as §1, §2, §3, §4, §5
“4-(N-methyl-N-(4-methoxy-3-(2-methylphenyl-methoxycarbonyl)-benzene)-amino) Coumarin [COUM-63]”: the negative logarithm of the IC50 (pIC50) is 5.30 to 7.00.

`COc1ccc(N(C)c2cc(=O)oc3ccccc23)cc1OCCN1CCSCC1` [COUM-50, 4-(N-methyl-N-(4-methoxy-3-(2-thiomorpholinoethoxy)-benzene)-amino) Coumarin]: the negative-log IC50 (pIC50) was 7.00 to 8.00.

Consider “4-(N-methyl-N-(4-methoxy-3-((4-ethylbenzene) methoxycarbonyl)-benzene)-amino) Coumarin [COUM-53]”, for which the pIC50 is 5.30 to 7.00.

As for “4-(N-methyl-N-(4-methoxy-3-(2-pyrrole ethoxy)-benzene)-amino) Coumarin [COUM-52]”, the negative logarithm of the IC50 (pIC50) was 5.30 to 7.00.

Still in this test, the particulars now being: Homo sapiens, MCF7, 72 hours, read-out: IC50 of compounds for tumor cells, Activity, MCF-7.
Consider `CS(=O)(=O)c1ccc(-c2ccc(-c3cc(=O)oc4ccccc34)o2)cc1` [COUM-16, 4-(5-(4-methylsulfonylphenyl)furan-2-yl)-coumarin], for which the negative-log IC50 (pIC50) was less than 5.30.

As for `O=c1cc(-c2ccc(-c3cccc(Cl)c3)o2)c2ccccc2o1` [COUM-22, 4-(5-(3-chlorobenzene)furan-2-yl)-coumarin], the pIC50 was less than 5.30.

Turning to `COc1ccc2c(N(C)c3cc(OC)c(OC)c(OC)c3)cc(=O)oc2c1` [COUM-44], the negative logarithm of the IC50 (pIC50) is 7.00 to 8.00.

For the molecule `Cc1ccc(-c2ccc(-c3cc(=O)oc4ccccc34)o2)cc1` [COUM-17, 4-(5-(4-methylphenyl)furan-2-yl)-coumarin], the pIC50 is less than 5.30.

Consider `O=c1cc(-c2ccc(-c3cccc(Cl)c3)s2)c2ccccc2o1` [COUM-8, 4-(5-(3-chlorobenzene)thiophene-2-yl)-coumarin], for which the pIC50 is less than 5.30.
